Experiments:
P2X4 [1] = target: T1, P2X4 (Homo sapiens, UniProt Q99571); assay: Assay B: human P2X4 receptor cell line, mitochondrial photina luminescence (agonist Bz-ATP at EC50); type: cell-based; design: host or cells: HEK 293 (recombinant, constitutively expressing; with mitochondrial photina in Assay B); details: HEK human P2X4 cell line, photina luminescence, agonist Bz-ATP at EC50, average; for Emax: read-out: human P2X4 Assay B avg Efficacy
T1 sequence (Q99571 1-388): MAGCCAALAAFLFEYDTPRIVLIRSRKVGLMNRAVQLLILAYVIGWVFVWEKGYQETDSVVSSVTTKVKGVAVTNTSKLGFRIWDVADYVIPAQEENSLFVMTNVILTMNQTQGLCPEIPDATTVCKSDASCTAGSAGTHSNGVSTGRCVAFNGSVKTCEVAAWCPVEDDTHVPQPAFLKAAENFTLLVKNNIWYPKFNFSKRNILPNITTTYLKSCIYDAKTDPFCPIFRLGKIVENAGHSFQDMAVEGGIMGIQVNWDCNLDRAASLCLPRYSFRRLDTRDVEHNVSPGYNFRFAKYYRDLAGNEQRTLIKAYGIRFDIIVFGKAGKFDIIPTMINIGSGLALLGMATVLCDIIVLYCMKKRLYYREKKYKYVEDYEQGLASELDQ
Method in brief: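 Bz-ATP at its EC50 activates human P2X4 stably expressed in a cell line that also carries the calcium-sensitive photoprotein mitochondrial photina (coelenterazine cofactor). Light emitted on calcium influx is measured straight away in a luminometer. Reduced luminescence indicates antagonism.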

P2X4 [2] = target: T1, P2X4; assay: Assay A: human P2X4 receptor cell line, FLIPR calcium assay (Fluo-8, agonist Bz-ATP at EC80); type: cell-based; design: host or cells: HEK 293 (recombinant, constitutively expressing; with mitochondrial photina in Assay B); details: HEK human P2X4 cells, Fluo-8 FLIPR; for IC50: Bz-ATP at EC80, average values; for Emax: percentage of maximal inhibition, read-out: human P2X4 Assay A avg Efficacy
Description: A fluorescent imaging plate reader (FLEX/FLIPR station; Molecular Devices) was used to monitor intracellular calcium levels using the calcium-chelating dye Fluo-8 (Molecular Probes). […] Cells expressing purinergic receptors human P2X4 (HEK human P2X4: PerkinElmer, Product No.: AX-015-PCF) were plated at a density of 20,000 cells/well in poly-D-lysine-coated 384-well plates approximately 20 hours before beginning the assay. On the day of the assay, the medium was removed and 30 μl of dye buffer (Hank's balanced salt solution, 10 mM HEPES, 1.8 mM CaCl2), 1 mM MgCl2, 2 mM probenecid, 5 mM D-glucose monohydrate, 5 μM Fluo-8, pH=7.4) was added for 30 min at […] and 5% CO2. The antagonist in probenecid buffer (Hank's balanced salt solution, 10 mM HEPES, 1.8 mM CaCl2, 1 mM MgCl2, 2 mM probenecid, 5 mM D-glucose monohydrate, pH=7.4) was added in a volume of 10 μl and allowed to incubate for 30 min at room temperature. The final assay DMSO concentration is 0.5%. The agonist, Bz-ATP, is added in a volume of 10 μl at a concentration representing the EC80 value. The fluorescence was measured for an interval of 120 sec at 2 sec intervals and analyzed based on the increase in peak relative fluorescence units (RFU) compared to the basal fluorescence. Peak fluorescence was used to determine the response to agonist obtained at each concentration of antagonist by the following equation:
% Response=100*(RFU(drug)−RFU(control))/(RFU(DMSO)−RFU(control))
The compounds were tested in triplicates per plate and mean values were plotted in Excel XLFit to determine IC50 values, percentage of maximal inhibition and the Hill coefficients.

IC50 (P2X4 [1]) [nM] | Emax (P2X4 [1]) [%] | IC50 (P2X4 [2]) [nM] | Emax (P2X4 [2]) [%] | Structure (SMILES)
1280 | 62 |  |  | NS(=O)(=O)c1cc(NC(=O)Cc2ccccc2)ccc1Oc1ccc(F)cc1 [Example 248, N-[4-(4-Fluorophenoxy)-3-sulfamoylphenyl]-2-phenylacetamide]
544 | 73 |  |  | NS(=O)(=O)c1cc(NC(=O)Cc2ccccc2)ccc1Oc1cccc(F)c1 [Example 249, N-[4-(3-Fluorophenoxy)-3-sulfamoylphenyl]-2-phenylacetamide]
439 | 82 |  |  | COc1cccc(Oc2ccc(NC(=O)Cc3ccccc3)cc2S(N)(=O)=O)c1 [Example 250, N-[4-(3-Methoxyphenoxy)-3-sulfamoylphenyl]-2-phenylacetamide]
6460 | 93 |  |  | NS(=O)(=O)c1cc(NC(=O)Cc2ccccc2)ccc1Oc1ccc(OC(F)(F)F)cc1 [Example 252, 2-Phenyl-N-{3-sulfamoyl-4-[4-(trifluoromethoxy)phenoxy]phenyl}acetamide]
236 | 71 |  |  | NS(=O)(=O)c1cc(NC(=O)Cc2ccccc2)ccc1Oc1cccc(C(F)(F)F)c1 [Example 253, 2-Phenyl-N-{3-sulfamoyl-4-[3-(trifluoromethyl)phenoxy]phenyl}acetamide]

Continued, compound first:

Structure (SMILES) | IC50 (P2X4 [1]) [nM] | Emax (P2X4 [1]) [%] | IC50 (P2X4 [2]) [nM] | Emax (P2X4 [2]) [%]
Cc1ccc(F)c(Oc2ccc(NC(=O)Cc3ccccc3)cc2S(N)(=O)=O)c1 [Example 251, N-[4-(2-Fluoro-5-methylphenoxy)-3-sulfamoylphenyl]-2-phenylacetamide] | 392 | 100 |  | 
N#Cc1cccc(Oc2ccc(NC(=O)Cc3ccccc3)cc2S(N)(=O)=O)c1 [Example 255, N-[4-(3-Cyanophenoxy)-3-sulfamoylphenyl]-2-phenylacetamide] | 271 | 64 |  | 
NS(=O)(=O)c1cc(NC(=O)Cc2ccc(O)cc2)ccc1Oc1cccc(Cl)c1 [Example 256, N-[4-(3-Chlorophenoxy)-3-sulfamoylphenyl]-2-(4-hydroxyphenyl)acetamide] |  |  | 19 | 75
COc1cc(C)cc(Cl)c1CC(=O)Nc1ccc(Oc2cccc(Cl)c2)c(S(N)(=O)=O)c1 [Example 257, 2-(2-Chloro-6-methoxy-4-methylphenyl)-N-[4-(3-chlorophenoxy)-3-sulfamoylphenyl]acetamide] |  |  | 355 | 85
NS(=O)(=O)c1cc(NC(=O)Cc2c(F)cc(F)cc2Cl)ccc1Oc1cccc(Cl)c1 [Example 259, 2-(2-Chloro-4,6-difluorophenyl)-N-[4-(3-chlorophenoxy)-3-sulfamoylphenyl]acetamide] |  |  | 145 | 76
CC(C(=O)Nc1ccc(Oc2cccc(Cl)c2)c(S(N)(=O)=O)c1)c1c(Cl)cccc1Cl (centres unmarked) [Example 260, N-[4-(3-Chlorophenoxy)-3-sulfamoylphenyl]-2-(2,6-dichlorophenyl)propanamide] |  |  | 2490 | 90
[2H]c1c([2H])c([2H])c(Oc2ccc(NC(=O)Cc3ccccc3Cl)cc2S(N)(=O)=O)c([2H])c1[2H] [Example 261, 2-(2-Chlorophenyl)-N-{4-[(^2H5)phenyloxy]-3-sulfamoylphenyl}acetamide] |  |  |  | 89
[2H]c1c([2H])c(Oc2ccc(NC(=O)Cc3ccccc3Cl)cc2S(N)(=O)=O)c([2H])c([2H])c1Cl [Example 262, 2-(2-Chlorophenyl)-N-(4-{[4-chloro(^2H4)phenyl]oxy}-3-sulfamoylphenyl)acetamide] |  |  | 42 | 54
NS(=O)(=O)c1cc(NC(=O)Cc2ccc3c(c2)OCCO3)ccc1Oc1ccc(Cl)cc1 [Example 276, N-[4-(4-Chlorophenoxy)-3-sulfamoylphenyl]-2-(2,3-dihydro-1,4-benzodioxin-6-yl)acetamide] | > 50000 | 35 |  | 
NS(=O)(=O)c1cc(NC(=O)Cc2cc3c(cc2Cl)OCCO3)ccc1Oc1cccc(Cl)c1 [Example 277, 2-(7-Chloro-2,3-dihydro-1,4-benzodioxin-6-yl)-N-[4-(3-chlorophenoxy)-3-sulfamoylphenyl]acetamide] | 185 | 45 |  | 

— patent publication US20180338980A1, “AROMATIC SULFONAMIDE DERIVATIVES” (BAYER PHARMA AKTIENGESELLSCHAFT, priority 2015, published 2018)
